Molecular target: T1, human Cereblon WT GST-tagged protein (Homo sapiens, UniProt Q96SW2)
T1 construct: purchased CISBIO 64BDCRBNPEH
Test: CRBN binding, HTRF CEREBLON BINDING kit
Settings: CRBN binding, HTRF CEREBLON BINDING kit
Method in brief: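 Binding inhibition was calculated from the 665/620 nm emission ratios, with blank wells and solvent wells as references. Test compounds competed for GST-tagged human Cereblon WT against a Thalidomide-Re reagent paired with GST Eu antibody. Plates were sealed and held at room temperature for 3 hours before the HTRF read.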

T1 sequence (Q96SW2 whole entry): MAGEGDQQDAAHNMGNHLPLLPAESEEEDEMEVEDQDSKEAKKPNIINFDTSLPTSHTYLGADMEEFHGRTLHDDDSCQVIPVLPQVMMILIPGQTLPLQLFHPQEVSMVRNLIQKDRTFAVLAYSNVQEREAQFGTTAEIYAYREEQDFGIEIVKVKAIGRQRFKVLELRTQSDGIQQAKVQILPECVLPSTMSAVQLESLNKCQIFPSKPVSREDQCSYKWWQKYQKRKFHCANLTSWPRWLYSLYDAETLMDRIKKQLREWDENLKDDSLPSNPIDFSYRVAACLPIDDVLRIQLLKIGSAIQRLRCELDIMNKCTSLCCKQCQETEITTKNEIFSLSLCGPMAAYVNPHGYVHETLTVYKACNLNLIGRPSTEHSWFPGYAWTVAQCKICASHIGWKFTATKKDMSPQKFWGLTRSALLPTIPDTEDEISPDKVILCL

| Structure (SMILES) | IC50 [nM] |
| --- | --- |
| O=C1CCN(c2ccc(CN3CCC(N4CCN(c5ccc6c(c5)nc(NC(=O)c5cccc(C(F)(F)F)c5)n6[C@H]5CC[C@@H](CO)CC5)CC4)CC3)nc2)C(=O)N1 [GT-05024, N-(5-(4-(1-((5-(2,4-dioxotetrahydropyrimidin-1(2H)-yl)pyridin-2-yl)methyl)piperidin-4-yl)piperazin-1-yl)-1-((1s,4s)-4-(hydroxymethyl)cyclohexyl)-1H-benzo[d]imidazol-2-yl)-3-(trifluoromethyl)benzamide] | 1000 to 1900 |
| O=C1CCN(c2cccc(CN3C4CCC3CN(c3ccc(-c5cc(F)c6c(c5)C(=O)N(C(C(=O)Nc5nccs5)c5ncn7c5CCC7)C6)cc3)C4)c2)C(=O)N1 (stereo not shown) [GT-06254, 2-(6,7-dihydro-5H-pyrrolo[1,2-c]imidazol-1-yl)-2-(6-(4-(8-(3-(2,4-dioxotetrahydropyrimidin-1(2H)-yl)benzyl)-3,8-diazabicyclo[3.2.1]octan-3-yl)phenyl)-4-fluoro-1-oxoisoindolin-2-yl)-N-(thiazol-2-yl)acetamide] | < 500 |
| COc1cc(N2CCC(N3CCN(Cc4ccc(C5CCC(=O)NC5=O)cc4)CC3)CC2)ccc1Nc1ncc(Cl)c(Nc2ccccc2P(C)(C)=O)n1 (stereo not shown) [GT-07602, 3-(4-((4-(1-(4-((5-chloro-4-((2-(dimethylphosphoryl)phenyl)amino)pyrimidin-2-yl)amino)-3-methoxyphenyl)piperidin-4-yl)piperazin-1-yl)methyl)phenyl)piperidine-2,6-dione] | < 500 |
| Nc1nnc(-c2ccccc2O)cc1N1CCN(Cc2ccc(C3CCC(=O)NC3=O)cc2)CC1 (stereo not shown) [GT-05015, 3-(4-((4-(3-amino-6-(2-hydroxyphenyl)pyridazin-4-yl)piperazin-1-yl)methyl)phenyl)piperidine-2,6-dione] | < 500 |
| CCc1cc2c(cc1N1CCC(N3CCN(Cc4ccc(N5CCC(=O)NC5=O)c(F)c4)CC3)CC1)C(C)(C)c1[nH]c3cc(C#N)ccc3c1C2=O [GT-07308, 8-(4-(4-(4-(2,4-dioxotetrahydropyrimidin-1(2H)-yl)-3-fluorobenzyl)piperazin-1-yl)piperidin-1-yl)-9-ethyl-6,6-dimethyl-11-oxo-6,11-dihydro-5H-benzo[b]carbazole-3-carbonitrile] | 500 to 1000 |
| O=C1CCC(c2ccc(CN3CCC(N4CCN(c5ccc6c(c5)nc(NC(=O)c5cccc(C(F)(F)F)c5)n6[C@H]5CC[C@@H](CO)CC5)CC4)CC3)cc2)C(=O)N1 (stereo partly shown) [GT-05020, N-(5-(4-(1-(4-(2,6-dioxopiperidin-3-yl)benzyl)piperidin-4-yl)piperazin-1-yl)-1-((1s,4s)-4-(hydroxymethyl)cyclohexyl)-1H-benzo[d]imidazol-2-yl)-3-(trifluoromethyl)benzamide] | 1000 to 1900 |
| CN(Cc1cccc(N2CCC(=O)NC2=O)c1)C1CCN(c2ccc(-c3cc(F)c4c(c3)C(=O)N(C(C(=O)Nc3nccs3)c3ncn5c3CCC5)C4)cc2)CC1 (stereo not shown) [GT-05281, 2-(6,7-dihydro-5H-pyrrolo[1,2-c]imidazol-1-yl)-2-(6-(4-(4-((3-(2,4-dioxotetrahydropyrimidin-1(2H)-yl)benzyl)(methyl)amino)piperidin-1-yl)phenyl)-4-fluoro-1-oxoisoindolin-2-yl)-N-(thiazol-2-yl)acetamide] | < 500 |
| CCc1cc2c(cc1N1CCC(N3CCN(Cc4ccnc(C5CCC(=O)NC5=O)c4)CC3)CC1)C(C)(C)c1[nH]c3cc(C#N)ccc3c1C2=O (stereo not shown) [GT-07704, 8-(4-(4-((2-(2,6-dioxopiperidin-3-yl)pyridin-4-yl)methyl)piperazin-1-yl)piperidin-1-yl)-9-ethyl-6,6-dimethyl-11-oxo-6,11-dihydro-5H-benzo[b]carbazole-3-carbonitrile] | 1000 to 1900 |
| Cc1ccc(-c2c(C)noc2C)cc1N(CC1CCN(Cc2cccc(N3CCC(=O)NC3=O)c2)CC1)c1ccc(C2(C#N)CC2)cc1 [GT-04842, 1-(4-((5-(3,5-dimethylisoxazol-4-yl)-2-methylphenyl)((1-(3-(2,4-dioxotetrahydropyrimidin-1(2H)-yl)benzyl)piperidin-4-yl)methyl)amino)phenyl)cyclopropane-1-carbonitrile] | 1000 to 1900 |
| COc1cc2nn(C3CCN(Cc4cccc(NC5CCC(=O)NC5=O)c4)CC3)cc2cc1NC(=O)c1cccc(C(F)(F)F)c1 (stereo not shown) [GT-04749, N-(2-(1-(3-((2,6-dioxopiperidin-3-yl)amino)benzyl)piperidin-4-yl)-6-methoxy-2H-indazol-5-yl)-3-(trifluoromethyl)benzamide] | 1000 to 1900 |
| CN(Cc1ccc(C2CCC(=O)NC2=O)cn1)C1CCN(c2ccc(-c3cc(F)c4c(c3)C(=O)N(C(C(=O)Nc3nccs3)c3ncn5c3CCC5)C4)cc2)CC1 (stereo not shown) [GT-07385, 2-(6,7-dihydro-5H-pyrrolo[1,2-c]imidazol-1-yl)-2-(6-(4-(4-(((5-(2,6-dioxopiperidin-3-yl)pyridin-2-yl)methyl)(methyl)amino)piperidin-1-yl)phenyl)-4-fluoro-1-oxoisoindolin-2-yl)-N-(thiazol-2-yl)acetamide] | < 500 |
| Cc1nc2c(F)cc(-c3nc(Nc4ccc(N5CCC(N(C)Cc6ccc(C7CCC(=O)NC7=O)cc6)CC5)cn4)ncc3F)cc2n1C(C)C (stereo not shown) [GT-06735, 3-(4-(((1-(6-((5-fluoro-4-(4-fluoro-1-isopropyl-2-methyl-1H-benzo[d]imidazol-6-yl)pyrimidin-2-yl)amino)pyridin-3-yl)piperidin-4-yl)(methyl)amino)methyl)phenyl)piperidine-2,6-dione] | 500 to 1000 |
| CC(C)(O)c1cc2nn(C3CCN(Cc4ccc(C5CCC(=O)NC5=O)cc4)CC3)cc2cc1NC(=O)c1cccc(C(F)(F)F)n1 (stereo not shown) [GT-05753, N-(2-(1-(4-(2,6-dioxopiperidin-3-yl)benzyl)piperidin-4-yl)-6-(2-hydroxypropan-2-yl)-2H-indazol-5-yl)-6-(trifluoromethyl)picolinamide] | 500 to 1000 |
| O=C1CCC(c2cnc(F)c(CN3CCN(c4ccc(-c5cc(F)c6c(c5)C(=O)N(C(C(=O)Nc5nccs5)c5ncn7c5CCC7)C6)cc4)CC3)c2)C(=O)N1 (stereo not shown) [GT-07490, 2-(6,7-dihydro-5H-pyrrolo[1,2-c]imidazol-1-yl)-2-(6-(4-(4-((5-(2,6-dioxopiperidin-3-yl)-2-fluoropyridin-3-yl)methyl)piperazin-1-yl)phenyl)-4-fluoro-1-oxoisoindolin-2-yl)-N-(thiazol-2-yl)acetamide] | < 500 |
| COc1cc(N2CCC(N(C)Cc3cncc(C4CCC(=O)NC4=O)c3)CC2)ccc1Nc1ncc(Cl)c(Nc2ccccc2P(C)(C)=O)n1 (stereo not shown) [GT-07699, 3-(5-(((1-(4-((5-chloro-4-((2-(dimethylphosphoryl)phenyl)amino)pyrimidin-2-yl)amino)-3-methoxyphenyl)piperidin-4-yl)(methyl)amino)methyl)pyridin-3-yl)piperidine-2,6-dione] | 500 to 1000 |
| CN(C)C(=O)c1cc2cnc(Nc3ccc(N4CCN(Cc5ccc(N6CCC(=O)NC6=O)cn5)CC4)cn3)nc2n1C1CCCC1 [GT-06342, 7-cyclopentyl-2-((5-(4-((5-(2,4-dioxotetrahydropyrimidin-1(2H)-yl)pyridin-2-yl)methyl)piperazin-1-yl)pyridin-2-yl)amino)-N,N-dimethyl-7H-pyrrolo[2,3-d]pyrimidine-6-carboxamide] | 1000 to 1900 |
| CN(Cc1ccc(N2CCC(=O)NC2=O)cn1)C1CCN(c2ccc(-c3cc(F)c4c(c3)C(=O)N(C(C(=O)Nc3nccs3)c3ncn5c3CCC5)C4)cc2)CC1 (stereo not shown) [GT-05282, 2-(6,7-dihydro-5H-pyrrolo[1,2-c]imidazol-1-yl)-2-(6-(4-(4-(((5-(2,4-dioxotetrahydropyrimidin-1(2H)-yl)pyridin-2-yl)methyl)(methyl)amino)piperidin-1-yl)phenyl)-4-fluoro-1-oxoisoindolin-2-yl)-N-(thiazol-2-yl)acetamide] | 500 to 1000 |
| COc1cc(N2CCC(N(C)Cc3ccc(N4CCC(=O)NC4=O)cn3)CC2)ccc1Nc1ncc(Cl)c(Nc2ccccc2P(C)(C)=O)n1 [GT-07617, 1-(6-(((1-(4-((5-chloro-4-((2-(dimethylphosphoryl)phenyl)amino)pyrimidin-2-yl)amino)-3-methoxyphenyl)piperidin-4-yl)(methyl)amino)methyl)pyridin-3-yl)dihydropyrimidine-2,4(1H,3H)-dione] | 1000 to 1900 |
| O=C1CCN(c2ccc(CN3CCC(N4CCN(c5ccc(-c6cc(F)c7c(c6)C(=O)N(C(C(=O)Nc6nccs6)c6ncn8c6CCC8)C7)cc5)CC4)CC3)cc2)C(=O)N1 (stereo not shown) [GT-06327, 2-(6,7-dihydro-5H-pyrrolo[1,2-c]imidazol-1-yl)-2-(6-(4-(4-(1-(4-(2,4-dioxotetrahydropyrimidin-1(2H)-yl)benzyl)piperidin-4-yl)piperazin-1-yl)phenyl)-4-fluoro-1-oxoisoindolin-2-yl)-N-(thiazol-2-yl)acetamide] | 500 to 1000 |

Source: patent US20260274829A1, “NEW E3 UBIQUITIN LIGASE LIGAND, PROTEIN DEGRADATION AGENT AND USE THEREOF” (GLUETACS THERAPEUTICS (SHANGHAI) CO., LTD., priority 2023, published 2026)
